Reference: PMC3156712 (2011)

Columns and labels:
[1] = test system: tRNA^phe (RNA, tRNA) GCGGAUUUAGCUCAGUUGGGAGAGCGCCAGACUGAAGAUCUGGAGGUCCUGUGUUCGAUCCACAGAAUUCGCACCA; assay: ITC, single site model; settings: 20 mM Na+, citrate-phosphate buffer pH 7.0, 20°C, per nucleotide phosphate, per base
[2] = test system: tRNA^phe (RNA, tRNA) GCGGAUUUAGCUCAGUUGGGAGAGCGCCAGACUGAAGAUCUGGAGGUCCUGUGUUCGAUCCACAGAAUUCGCACCA; assay: DSC and optical melting; settings: Na+, citrate-phosphate buffer pH 7.0, third transition (61°C), first unaffected, compound concentration not stated, per base
[3] = test system: tRNA^phe (RNA, tRNA) GCGGAUUUAGCUCAGUUGGGAGAGCGCCAGACUGAAGAUCUGGAGGUCCUGUGUUCGAUCCACAGAAUUCGCACCA; assay: absorption titration, Scatchard, McGhee-von Hippel; settings: 20 mM Na+, citrate-phosphate buffer pH 7.0, 20°C, per nucleotide phosphate, per base
[4] = test system: tRNA^phe (RNA, tRNA) GCGGAUUUAGCUCAGUUGGGAGAGCGCCAGACUGAAGAUCUGGAGGUCCUGUGUUCGAUCCACAGAAUUCGCACCA; assay: fluorescence titration, Scatchard, McGhee-von Hippel; settings: 20 mM Na+, citrate-phosphate buffer pH 7.0, 20°C, per nucleotide phosphate, per base

| K [1] | dTm ([2]; second transition about 4°C) [°C] | K′ [3] | K′ [4] | K ([1]; 240 mM DMSO) | dTm ([2]; second transition about 2°C) [°C] | K′ ([3]; 240 mM DMSO) | K′ ([4]; 240 mM DMSO) | SMILES |
| --- | --- | --- | --- | --- | --- | --- | --- | --- |
| 22.2 ± 0.1 × 10^4 M^-1 | 12.5 | 21.20 ± 0.30 × 10^4 M^-1 | 18.58 ± 0.32 × 10^4 M^-1 |  |  |  |  | COc1cccc2c1C(=O)c1c(O)c3c(c(O)c1C2=O)C[C@@](O)(C(C)=O)C[C@@H]3O[C@H]1C[C@H](N)[C@H](O)[C@H](C)O1 |
|  |  |  |  | 6.5 ± 0.3 × 10^4 M^-1 | 7 | 4.33 ± 0.20 × 10^4 M^-1 | 6.38 ± 0.20 × 10^4 M^-1 | COc1cccc2c1cc1c3c(cc4c(c32)OCO4)C(=O)N1[C@@H]1O[C@H](CO)[C@@H](O)[C@H](O)[C@H]1O |
